Measured values: patent publication US5607926A, “Cephalosporin antibiotics” (Microcide Pharmaceuticals, Inc., priority 1995, dated 1997)
Values after ≈ are worked out from the molar mass of the structure shown. Where two headings read alike, the source gives them in different places.

Key:
Assay type in all cases: cell-based
S. aureus ATCC 29213 = assay: In vitro antibacterial evaluation, MIC by agar dilution, S. aureus ATCC 29213; details: Staphylococcus aureus, ATCC29213
Summary of the method: (§1)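 Log-phase isolates were spot-inoculated at about 10^4 cfu per spot onto Mueller-Hinton agar plates containing twofold compound dilutions (highest working concentration 128 μg/mL, lowest ≤0.25 μg/mL, duplicates). After 16-20 h at 35-36 °C, the lowest growth-inhibiting level was taken as MIC, per NCCLS agar dilution.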

[1] = test system: S. epidermidis ATCC 31432; assay: In vitro antibacterial evaluation, MIC by agar dilution, S. epidermidis ATCC 31432; details: Staphylococcus epidermidis, ATCC31432
Experimental: (§2) The compounds of the invention were evaluated against several β-lactamresistant bacteria strains by determining the minimum inhibitory concentration (MIC, μg/ml) of each compound with respect to each strain. The MIC, the lowest concentration of antibiotic which inhibits growth of the test organism, was determined by the agar dilution method.
(§3) To determine the MIC for bacterial isolates, the test compound was incorporated in a series of two-fold dilutions into liquified Mueller-Hinton agar. Upon solidification, a number of different bacterial strains were spot inoculated with a replicating device onto the agar surface. […] The procedures used in these studies have been standardized by the National Committee for Clinical Laboratory Standards (NCCLS), as per the NCCLS publication entitled METHODS FOR DILUTION ANTIMICROBIAL SUSCEPTIBILITY TESTS (1991), which is incorporated herein by reference.
(§4) Aliquots of antimicrobial agents were prepared in phosphate buffered saline (PBS) at pH 7.2. Tween 20 or DMSO was used as a solubilizing vehicle as needed. Standard methods of vortexing, sonicating and gentle heat were used to facilitate solubilizing the test agent. Typically, the concentration of the stock solution was 10× that of the highest drug concentration tested. A 1.28 mg/mL stock solution was used with a subsequent highest working concentration of 128 μg/mL. Serial two-fold dilutions were done through ≤0.25 μg/mL. Each drug level was tested in duplicate. Two-fold drug dilutions were done in sterile 50 mL tubes with a final drug volume of 5 mL. Upon the addition of 45 mL of molten agar, a 10-fold dilution resulted. Two, 25 mL. plates were then poured into 15×150 mm square Petri plates with grids and allowed to harden.
(§5) A control plate with a reference drug, either cefotaxime, vancomycin or imipenem, was used as the positive growth control. Stock concentrations of reference antibiotics were prepared and frozen at -80° C. Upon preparation, the control plates were sealed and stored in the refrigerator for up to 1 week prior to use; however, imipenem control plates had to be prepared just prior to use. All test plates were used within 24 hours of preparation.
(§6) Satisfactory results were obtained where the inoculum contained about 10^4 colony forming units (cfu) ±0.5 logs. Starting with pure cultures of the test isolates on agar plates, a few isolated colonies were transferred to a tube of nutrient broth and allowed to grow 4-6 hours at 35°-36° C. to reach log-phase growth. Dropwise addition of the broth culture to PBS was done to match a 0.5 McFarland turbidity standard equal to 10^8 cfu/mL. This was further diluted ten-fold in PBS to reach a working inoculum concentration of 10^7 cfu/mL. When 1 μL of the working inoculum was applied to the agar surface a concentration of about 10^4 cfu per spot was obtained.
(§7) Disposable sterile 1 μL loops were used to inoculate test plates, with each isolate in a designated grid on the agar plate. An alternate method of inoculation involved the use of a replica plater, a device with 48 steel pins allowing the simultaneous inoculation of multiple isolates. After the spots had dried, the plates were incubated at 35°-36° C. for 16-20 hours. Endpoints were assessed as the minimum inhibitory concentration (MIC) of antimicrobial agent.

[2] = test system: S. aureus 76 (Meth^R)(lac^+); assay: In vitro antibacterial evaluation, MIC by agar dilution, S. aureus 76; details: Staphylococcus aureus, read-out: MIC
Summary of the method: as §1

[3] = test system: S. aureus Col8A (Meth^S)(lac^-); assay: In vitro antibacterial evaluation, MIC by agar dilution, S. aureus Col8A; details: Staphylococcus aureus
Summary of the method: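 Log-phase isolates were spot-inoculated at about 10^4 cfu onto Mueller-Hinton agar carrying duplicate two-fold compound levels, 128 μg/mL to ≤0.25 μg/mL, following NCCLS (1991). Plates were read after 16-20 h at 35°-36° C. The lowest growth-inhibiting concentration gave the MIC (μg/ml).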

S. haemolyticus (Meth^R) = assay: In vitro antibacterial evaluation, MIC by agar dilution, S. haemolyticus; details: Staphylococcus haemolyticus, read-out: MIC
Summary of the method: as §1

E. faecium ATCC 35667 = assay: In vitro antibacterial evaluation, MIC by agar dilution, E. faecium ATCC 35667; details: Enterococcus faecium, ATCC35667, read-out: MIC
Summary of the method: as §1

E. coli ATCC 25922 = assay: In vitro antibacterial evaluation, MIC by agar dilution, E. coli ATCC 25922; details: Escherichia coli, ATCC25922, read-out: MIC
Summary of the method: as §1

P. aeruginosa ATCC 27853 = assay: In vitro antibacterial evaluation, MIC by agar dilution, P. aeruginosa ATCC 27853; details: Pseudomonas aeruginosa, ATCC27853, read-out: MIC
Summary of the method: as §1

S. aureus ATCC 25923 = assay: In vitro antibacterial evaluation, MIC by agar dilution, S. aureus ATCC 25923; details: Staphylococcus aureus, ATCC25923
Experimental: as §2, §3, §4, §5, §6, §7

E. faecalis ATCC 29212 = assay: In vitro antibacterial evaluation, MIC by agar dilution, E. faecalis ATCC 29212; details: Enterococcus faecalis, ATCC29212; E. faecalis ATCC 29212; read-out: MIC
Summary of the method: as §1

Row | Compound | MIC (S. aureus ATCC 29213) [µg/mL] | MIC ([1]; S. epidermidis ATCC 31432, read-out: MIC) [µg/mL] | MIC [2] [µg/mL] | MIC [3] [µg/mL] | MIC (S. haemolyticus (Meth^R)) [µg/mL] | MIC (E. faecium ATCC 35667) [µg/mL] | MIC (E. coli ATCC 25922) [µg/mL] | MIC [1] [µg/mL] | MIC (P. aeruginosa ATCC 27853) [µg/mL] | MIC (S. aureus ATCC 25923) [µg/mL] | MIC (E. faecalis ATCC 29212) [µg/mL]
1 | O=C(Cc1cccs1)N[C@@H]1C(=O)N2C(C(=O)O)=C(Sc3ccccc3I)CS[C@H]12 [Cmpd 25, (7R)-7-[(2-Thienylacetyl)amino]-3-(o-iodophenylthio)-3-cephem-4-carboxylic acid] | 0.125 (≈ 0.224 µM) | < 0.06 | 4 (≈ 7.16 µM) | 0.125 (≈ 0.224 µM) | 16 (≈ 28.7 µM) | 2 (≈ 3.58 µM) | > 32 |  |  |  | 
2 | O=C(Cc1cccs1)N[C@@H]1C(=O)N2C(C(=O)O)=C(Sc3cc(Cl)ccc3Cl)CS[C@H]12 [Cmpd 26, (7R)-7-[(2-Thienylacetyl)amino]-3-(2,5-dichlorophenylthio)-3-cephem-4-carboxylic acid] | < 0.25 |  | 4 (≈ 7.98 µM) | < 0.25 | 8 (≈ 16 µM) | 2 (≈ 3.99 µM) | > 32 | < 0.25 |  |  | 
3 | O=C(Cc1ccccc1)N[C@@H]1C(=O)N2C(C(=O)O)=C(Sc3ccccc3-c3ccco3)CS[C@H]12 [Cmpd 27, (7R)-7-[(Phenylacetyl)amino]-3-(2-(2-furyl)phenylthio)-3-cephem-4-carboxylic acid] | < 0.25 |  | 4 (≈ 8.12 µM) | < 0.25 | 16 (≈ 32.5 µM) | 1 (≈ 2.03 µM) | > 32 | < 0.25 |  |  | 
4 | O=C(Cc1ccccc1)N[C@@H]1C(=O)N2C(C(=O)O)=C(Sc3ccc(Cl)cc3Cl)CS[C@H]12 [Cmpd 28, (7R)-7-[(Phenylacetyl)amino]-3-(2,4-dichlorophenylthio)-3-cephem-4-carboxylic acid] | < 0.25 |  | 4 (≈ 8.07 µM) | < 0.25 | 8 (≈ 16.1 µM) | 2 (≈ 4.04 µM) | > 32 | < 0.25 |  |  | 
5 | COc1ccc(CC(=O)N[C@@H]2C(=O)N3C(C(=O)O)=C(Sc4ccccc4I)CS[C@H]23)cc1 [Cmpd 29, (7R)-7-[(p-Methoxyphenylacetyl)amino]-3-(o-iodophenylthio)-3-cephem-4-carboxylic acid] | < 0.25 |  | 4 (≈ 6.87 µM) | < 0.25 | 16 (≈ 27.5 µM) | 1 (≈ 1.72 µM) | > 32 | < 0.25 |  |  | 
6 | O=C(COc1ccc(Cl)cc1)N[C@@H]1C(=O)N2C(C(=O)O)=C(Sc3ccccc3I)CS[C@H]12 [Cmpd 30, (7R)-7-[(p-Chlorophenoxyacetyl)amino]-3-(o-iodophenylthio)-3-cephem-4-carboxylic acid] | < 0.25 |  | 2 (≈ 3.32 µM) | < 0.25 | 4 (≈ 6.64 µM) | 1 (≈ 1.66 µM) | > 32 | < 0.25 | 13 (≈ 21.6 µM) |  | 
7 | O=C(COc1ccc(Cl)cc1)N[C@@H]1C(=O)N2C(C(=O)O)=C(Sc3cc(Cl)ccc3Cl)CS[C@H]12 [Cmpd 31, (7R)-7-[(p-Chlorophenoxyacetyl)amino]-3-(2,5-dichlorophenylthio)-3-cephem-4-carboxylic acid] | < 0.25 |  | 4 (≈ 7.33 µM) | < 0.25 | 8 (≈ 14.7 µM) | 4 (≈ 7.33 µM) | > 32 | < 0.25 |  |  | 
8 | COc1ccc(CC(=O)N[C@@H]2C(=O)N3C(C(=O)O)=C(Sc4cc(Cl)ccc4Cl)CS[C@H]23)cc1 [Cmpd 32, (7R)-7-[(p-Methoxyphenylacetyl)amino]-3-(2,5-dichlorophenylthio)-3-cephem-4-carboxylic acid] | < 0.25 |  | 4 (≈ 7.61 µM) | < 0.25 | 16 (≈ 30.5 µM) | 2 (≈ 3.81 µM) | > 32 | < 0.25 |  |  | 
9 | O=C(Cc1ccccc1)N[C@@H]1C(=O)N2C(C(=O)O)=C(Sc3cc(F)ccc3Br)CS[C@H]12 [Cmpd 33, (7R)-7-[(Phenylacetyl)amino]-3-(2-bromo-5-fluorophenylthio)-3-cephem-4-carboxylic acid] | < 0.25 |  | 4 (≈ 7.64 µM) | < 0.25 | 16 (≈ 30.6 µM) | 1 (≈ 1.91 µM) | > 32 | < 0.25 |  |  | 
10 | N#CCC(=O)N[C@@H]1C(=O)N2C(C(=O)O)=C(Sc3ccccc3-c3ccccc3)CS[C@H]12 [Cmpd 34, (7R)-7-[(Cyanoacetyl)amino]-3-(2-biphenylthio)-3-cephem-4-carboxylic acid] |  |  | 8 (≈ 17.7 µM) | < 0.25 | 8 (≈ 17.7 µM) | 2 (≈ 4.43 µM) | > 32 | < 0.25 | > 32 | < 0.25 | 2 (≈ 4.43 µM)
11 | O=C(CSc1ccccc1)N[C@@H]1C(=O)N2C(C(=O)O)=C(Sc3cc(Cl)ccc3Cl)CS[C@H]12 [Cmpd 35, (7R)-7-[(Phenylthioacetyl)amino]-3-(2,5-dichlorophenylthio)-3-cephem-4-carboxylic acid] |  |  | 2 (≈ 3.79 µM) | < 0.25 | 8 (≈ 15.2 µM) | 1 (≈ 1.9 µM) | > 32 | < 0.25 | > 32 | < 0.25 | 1 (≈ 1.9 µM)
12 | C=Cc1ccccc1SC1=C(C(=O)O)N2C(=O)[C@@H](NC(=O)Cc3ccccc3)[C@H]2SC1 [Cmpd 36, (7R)-7-[(Phenylacetyl)amino]-3-(2-vinylphenylthio)-3-cephem-4-carboxylic acid] |  |  | 8 (≈ 17.7 µM) | < 0.25 | 16 (≈ 35.4 µM) | 4 (≈ 8.84 µM) | > 32 | < 0.25 | > 32 | < 0.25 | 2 (≈ 4.42 µM)
13 | O=C(Cc1ccccc1)N[C@@H]1C(=O)N2C(C(=O)O)=C(Sc3cccc4ccccc34)CS[C@H]12 [Cmpd 54, (7R)-7-[(Phenylacetyl)amino]-3-(1-naphthalenylthio)-3-cephem-4-carboxylic acid] | < 0.25 |  | 8 (≈ 16.8 µM) | < 0.25 | 16 (≈ 33.6 µM) | 4 (≈ 8.39 µM) | > 32 | < 0.25 | > 32 |  | 
